Data as given in patent US20030194750A1, “Methods for treatment of diseases where GSK 3-beta is desired, and methods to identify compounds usefule for that” (priority 2002, published 2003).

What was measured:
[1] = biological target: T1, COX I (Ovis aries, UniProt P05979); test: Purified cyclooxygenase (COX) inhibition; format: biochemical, ram; details: arachidonic acid 100 μM, 2.0 min, 37° C.
T1 construct: The COX was purified from ram seminal vesicles; from tissue; host or cells: ram seminal vesicles
T1 sequence (P05979 25-600): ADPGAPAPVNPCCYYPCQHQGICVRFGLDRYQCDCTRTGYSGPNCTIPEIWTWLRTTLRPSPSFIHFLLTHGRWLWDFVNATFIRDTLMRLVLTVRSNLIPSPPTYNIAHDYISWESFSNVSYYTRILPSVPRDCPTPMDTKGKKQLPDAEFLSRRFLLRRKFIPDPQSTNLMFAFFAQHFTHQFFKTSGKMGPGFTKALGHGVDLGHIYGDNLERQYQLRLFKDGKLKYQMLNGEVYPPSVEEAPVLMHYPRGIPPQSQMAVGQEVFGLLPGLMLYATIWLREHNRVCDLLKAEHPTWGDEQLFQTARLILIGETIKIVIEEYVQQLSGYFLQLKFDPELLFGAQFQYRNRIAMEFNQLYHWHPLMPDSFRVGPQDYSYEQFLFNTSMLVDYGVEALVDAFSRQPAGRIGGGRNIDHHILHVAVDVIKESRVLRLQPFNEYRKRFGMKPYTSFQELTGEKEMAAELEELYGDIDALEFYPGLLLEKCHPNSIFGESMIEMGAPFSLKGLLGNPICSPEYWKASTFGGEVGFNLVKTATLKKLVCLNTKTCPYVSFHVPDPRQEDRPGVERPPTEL
Method: COX catalyzes the formation of prostaglandins and thromboxane by the oxidative metabolism of arachidonic acid. The compound of Example 1 of this invention, as well as a positive control, (sulindac sulfide) were evaluated to determine whether they inhibited purified cyclooxygenase Type I (see Table 1 below).
The compounds useful in the practice of this invention were evaluated for inhibitory effects on purified COX. The COX was purified from ram seminal vesicles, as described by Boopathy, R. and Balasubramanian, J., 239:371-377, 1988. COX activity was assayed as described by Evans, A. T., et al., “Actions of Cannabis Constituents on Enzymes Of Arachidonate Metabolism Anti-Inflammatory Potential,” Biochem. Pharmacol., 36:2035-2037, 1987. Briefly, purified COX was incubated with arachidonic acid (100 μM) for 2.0 min at 37° C. in the presence or absence of test compounds. The assay was terminated by the addition of TCA, and COX activity was determined by absorbance at 530 nm.

[2] = biological target: T2, GST-cGB-PDE5 fusion protein (Homo sapiens, UniProt O76074); test: cGMP binding assay with GST-cGB-PDE5 fusion protein; details: 3H-cGMP 2 μM, 22° C., 1 hour
T2 construct: made in house; host or cells: E. coli BL21 (DE3)
T2 sequence (O76074 46-539 limits assumed): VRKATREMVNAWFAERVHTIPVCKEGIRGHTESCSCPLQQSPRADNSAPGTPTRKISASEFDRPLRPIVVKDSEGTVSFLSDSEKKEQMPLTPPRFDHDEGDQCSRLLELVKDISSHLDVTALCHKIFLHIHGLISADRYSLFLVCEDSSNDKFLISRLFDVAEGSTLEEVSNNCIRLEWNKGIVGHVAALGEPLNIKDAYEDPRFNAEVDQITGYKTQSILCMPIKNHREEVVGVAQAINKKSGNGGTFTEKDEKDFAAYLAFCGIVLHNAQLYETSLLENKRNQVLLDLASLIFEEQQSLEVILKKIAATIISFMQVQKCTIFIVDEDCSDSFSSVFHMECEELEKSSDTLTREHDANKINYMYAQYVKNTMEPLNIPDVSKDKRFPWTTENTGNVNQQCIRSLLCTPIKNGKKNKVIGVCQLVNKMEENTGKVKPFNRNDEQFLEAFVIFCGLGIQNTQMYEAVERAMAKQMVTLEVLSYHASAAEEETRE
Method: 5′-3′, Inc. kits for total RNA followed by oligo (dT) column purification of mRNA are used with HT-29 cells. […] It is then cloned into pGEX-5X-3 glutathione-S-transferase (GST) fusion vector (Pharmacia Biotech) with tac promoter, and EcoRI and XhoI cut sites. The fusion vector is then transfected into E. Coli BL21 (DE3) bacteria (Invitrogen). The transfected BL21 bacteria is grown to log phase, and then IPTG is added as an inducer. The induction is carried at 20° C. for 24 hrs. The bacteria are harvested and lysed. The soluble cell lysate is incubated with GSH conjugated Sepharose 4B (GSH-Sepharose 4B). The GST-cGB-PDE5 fusion protein can bind to the GSH-Sepharose beads, and the other proteins are washed off from beads with excessive cold PBS.
Then, the mixture is transferred to Brandel MB-24 cell harvester with GF/B as the filter membrane followed by 2 washes with 10 mL of cold 5 mM potassium buffer( pH 6.8). The membranes are then cut out and transferred to scintillation vials followed by the addition of 1 mL of H2O and 6 mL of Ready Safe™ liquid scintillation cocktail to each vial. The vials are counted on a Beckman LS 6500 scintillation counter.
The quenching by filter membrane or other debris are also calibrated.

[3] = system: β-catenin; test: Western blot of β-catenin in SW480 cells; format: cell-based, human
Method: (§1) SW480 cells treated with exisulind as described previously are harvested from the microfuge tubes by rinsing once with ice-cold PBS. The cells are lysed by modified RIPA buffer for 15 minutes with agitation. The cell lysate is spun down in a cold room. The supernatants are transferred to fresh microcentrifuge tubes immediately after spinning. BioRad DC Protein Assay (Temecula, Calif.) is performed to determine the protein concentrations in samples. The samples are normalized for protein concentration, as described above.
(§2) 50 μg of each sample is loaded to 10% SDS gel. SDS-PAGE is performed, and the proteins then are transferred to a nitrocellulose membrane. The blotted nitrocellulose membrane are blocked in freshly prepared TBST containing 5% nonfat dry milk for one hour at room temperature with constant agitation.
SW480 cells were treated with exisulind or vehicle (0.1% DMSO) for 48 hours. 50 μg supernatant of each cell lysates were loaded to 10% SDS-gel and blotted to nitrocellulose membrane, and the membrane was probed with rabbit-anti-β-catenin and rabbit anti-PKG antibodies.
This observation was made by culturing SW480 cells with either 200, 400 or600 μM exisulind or vehicle (0.1% DMSO). The cells are harvested 48 hours post treatment and processed for immunoblotting. Immuno-reactive protein can be detected by Western blot. […]

[4] = system: PKG; test: PKG activity assay on lysates of drug-treated SW480 colon cancer cells (32P phosphorylation of PDE5/GST substrate); format: cell-based, human; details: SW480 cells treated 48 hrs; exisulind 200, 400, 600 μM, E4021 0.1, 1, 10 μM; assay with and without added cGMP
Method: A compound that inhibits all these types of PDE is desirable, accordingly. Below, we provide examples of such PDE-inhibiting compounds.
SW 480 is known to contain the APC mutation. About 5 million SW480 cells in RPMI 5% serum are added to each of 8 dishes:
2-10 cm dishes - - - 30 μL DMSO vehicle control (without drug),
3-10 cm dishes - - - 200 μM, 400 μM, 600 μM exisulind in DMSO, and
The dishes are incubated for 48 hrs at 37° C. in 5% CO2 incubator.
The liquid media are aspirated from the dishes (the cells will attach themselves to the dishes). The attached cells are washed in each dish with cold PBS, and 200 μL cell lysis buffer (i.e., 50 mM Tris-HCl, 1% NP-40, 150 mM NaCl, 1 mM EDTA, 1 mM Na3VO4, 1 mM NaF, 500 μM IBMX with proteinase inhibitors) is added to each dish. Immediately after the cell lysis buffer is added, the lysed cells are collected by scraping the cells off each dish. The cell lysate from each dish is transferred to a microfuge tube, and the microfuge tubes are incubated at 4° C. for 15 minutes while gently agitating the microfuge tubes to allow the cells to lyse completely. […]
For each control or drug cell lysate sample to be evaluated, the reaction is started by adding phosphorylation buffer containing 10 μCi ^32P-γ-ATP solution (200 μM ATP, 4.5 mM MgCl; 5 mM KH2PO4; 5 mM K2HPO4;) to each mixture. […]

[5] = system: PKG1β; test: Western blot of PKG1β in SW480 cells; format: cell-based, human; details: various concentrations, 48 hours
Method: (§3) 50 μg protein/lane were analyzed by Western blot analysis using specific anti-PKG1β and anti-GSK3β-phospho-ser9 antibodies.

[6] = system: PKG; test: Western blot of PKG protein in SW480 cells; format: cell-based, human; details: 48 hours, vs vehicle 0.1% DMSO
Method: as §1, §2
A goat-anti-PKG primary antibody is diluted to the recommended concentration/dilution in fresh TBST/5% nonfat dry milk. The nitrocellulose membrane is placed in the primary antibody solution and incubated one hour at room temperature with agitation. The nitrocellulose membrane is washed three times for ten minutes each with TBST. The nitrocellulose membrane is incubated in a solution containing a secondary POD conjugated rabbit anti-goat antibody for 1 hour at room temperature with agitation. The nitrocellulose membrane is washed three times for ten minutes each time with TBST. […]

[7] = system: GSK3β; test: Western blot of GSK3β-phospho-ser9 in SW480 cells; format: cell-based, human; details: various concentrations, 48 hours, vs 0 concentration
Method: as §3

[8] = system: PKG; test: PKG activity assay on lysates of drug-treated HCT116 colon cancer cells; format: cell-based, human; details: HCT116 cells (β-catenin mutation, no APC mutation), same procedure as SW480
From the text: HCT116 is known to contain the β-catenin mutation, but is known not to contain the APC mutation.
The same procedure is used to grow the HCT116 cells as is used in the SW480 procedure described above. In this experiment, only exisulind and controls were used.

| SMILES | inhibition at 100 µM [1] | competition with cGMP for the cGMP binding sites [2] | reduction of β-catenin expression compared to control ([3]; SW480 cells, 200, 400 or 600 μM, harvested 48 hours post treatment) | β-catenin level by Western blot ([3]; SW480 cells, 48 hours, vs vehicle 0.1% DMSO) | PKG activity relative to control [4] | PKG1 induction [5] | PKG protein level by Western blot [6] | GSK3β inactivation by Ser9 phosphorylation [7] | PKG activation relative to controls [8] |
| --- | --- | --- | --- | --- | --- | --- | --- | --- | --- |
| CC1=C(CC(=O)NCc2ccccc2)c2cc(F)ccc2/C1=C\c1ccncc1 [Example 1, (Z)-5-Fluoro-2-Methyl-(4-Pyridinylidene)-3-(N-Benzyl)-Indenylacetamide] | < 25% | – | – | – | – | – | – | – | – |
| CC1=C(CC(=O)O)c2cc(F)ccc2/C1=C\c1ccc(S(C)(=O)=O)cc1 [exisulind] | – | None of the PDE5 inhibitors showed any competition with cGMP in binding | 50% | drop of β-catenin | causes PKG activity to increase in a dose-dependent manner | PKG1 induction in a dose-dependent manner | increase of PKG | inactivated in vivo by phosphorylation of its Ser9 | PKG activation occurred |
